# Assays:
# cholesterol fed rat = assay: HDL in cholesterol fed rat model; type: in vivo; conditions: FIG. 5
# Protocol: Lipid Measurements: Lipid levels were measured at the end of the studies using commercially available kits.
# Atherosclerosis is associated with dyslipidemia (increased LDL and low HDL).
# [1] = test system: RCT gene (apolipoprotein E, SRB1 and LCAT); assay: RCT gene expression in pancreatic beta cells; type: cell-based; conditions: 25 uM, FIG. 7
# Protocol: Pancreatic beta cells were incubated with compound A (25 uM). Following treatment total RNA was isolated and RCT gene (apolipoprotein E, SRB1 and LCAT) expression was determined.
# Ob/ob mice = assay: Plasma glucose in ob/ob mice (insulin resistance and diabetes model); type: in vivo; conditions: 2 and 4 weeks of treatment, FIG. 9
# Protocol: Glucose Measurements: Glucose levels were measured at the end of the studies using commercially available kits. Ob/ob mice were treated with control vehicle or vehicle containing Compound A (GATA activator) or vehicle containing pioglitazone (a known antidiabetic drug).
# Pancreatic beta cells = assay: Glucose stimulated insulin secretion in pancreatic beta cells; type: cell-based; conditions: 25 uM, FIG. 8
# Protocol: Pancreatic beta cells were incubated with compound A (25 uM). Following treatment glucose stimulated insulin secretion was determined.
# GATA1 = assay: GATA knock-down (siRNA), inducible RCT gene expression; type: cell-based, human; conditions: normal vs GATA-knockdown (siRNA) HepG2 cells; FIG. 2
# Protocol: GATA knock-down: HepG2 cells were grown in T-75 flasks prior to study. Transfection of GATA1 specific siRNA in 24-well plates was performed according to the manufacturer's instructions. After 48 hours, RNA was isolated and RT-PCR was performed to examine changes in GATA1 and RCT message levels all normalized to actin. In some experiments, after 48 hours post transfection, media was removed and normal growth media+one of Compounds A-E or DMSO control was added to the wells. RNA isolation and RT-PCR was then performed as stated above.
# To determine the role of GATA on inducible RCT gene expression, molecular approaches were used to reduce GATA expression. GATA expression was reduced by siRNA gene silencing. In this test, a candidate compound (Compound A), known for its ability to function as a GATA inducer, was added to both normal and GATA-knockdown cells as described above.
# ApoE −/− mice = assay: Lipid content of aortas in ApoE −/− fat fed mice; type: in vivo; conditions: oral 50 mg/kg/day for 7 days, oil-red O staining, FIG. 6
# Protocol: Lipid Content: 8 week old ApoE −/− mice were fed a high fat diet for 2 months and then placed on normal chow. The mice were then orally dosed for 7 days with either CMC-tween (control) or Compound C at 50 mg/kg/day. At the end of the study, the aorta was dissected out, fixed in the O.C.T., sections were prepared, stained with oil-red O, and mounted under cover slips. The oil-red O staining was analyzed using quantitation software and reported as lipid content per lesion area.
# Atherosclerosis is also associated with high levels of lipid content in aortas. Compound C was administered to mice according to the method described above and according to conventional animal testing protocol. The lipid content of the aortas was measured.
# RCT genes = assay: Real time quantitative PCR screen for RCT gene induction; type: cell-based, human; conditions: cells treated, total RNA, FIG. 4
# Protocol: PT-PCR Screen: Human liver cells (HepG2) were grown in T-75 flasks prior to study. 96-well plates were seeded, and the following day, cells were washed with PBS and treated with serum free media for 24 hours. The next day, cells were treated with vehicle (DMSO) or with one of Compounds A-E overnight. RNA was isolated and RT-PCR was performed to examine changes in RCT gene message levels normalized to actin.
# An in vitro high-throughput assay based on real time quantitative PCR was developed to screen for and identify agents that simultaneously upregulate RCT genes. Cells were treated with pharmaceutical agents, some of which are GATA inducers as described above. Total RNA was isolated and used in the real time assay.
# GATA = GATA luciferase reporter assay (GATA activity); type: cell-based, human; conditions: HepG2 cells transfected with GATA luciferase construct, treated overnight; FIG. 3
# Protocol: GATA activity: HepG2 cells were grown in T-75 flasks prior to study. 24-well plates were seeded in normal medium without antibiotics to yield ˜50% confluency. The following day, cells were transfected according to the manufacturer's protocol and allowed to incubate overnight. The next day, the media was replaced and cells were treated with vehicle (DMSO) or one of Compounds A-E overnight. Cells were lysed by adding lysis buffer and assayed for luciferase activity.
# An in vitro high-throughput assay based on luciferase activity to screen for and identify agents that upregulate GATA activity was developed. HepG2 cells were grown in T-75 flasks prior to study. 24-well plates were seeded in normal medium without antibiotics to yield ˜50% confluency. The following day, cells were transfected (Roche, FuGENE 6 transfection reagent, cat#11815091001) with a GATA luciferase construct (Panomics, cat#LR0027) according to the manufacturer's protocol and allowed to incubate overnight. The next day, the media was replaced and cells were treated with vehicle (DMSO) or GATA inducer candidate compounds (Compounds A-E) overnight. Cells were lysed by adding lysis buffer (Promega, cat#E1500) and assayed for luciferase activity (Perkin Elmer Envision 2101 Multi-Label Reader).
smiles,measurement,setting,value
CC(=O)c1ccc(Nc2nc(-c3ccccc3)cc(N3CCC(O)CC3)n2)cc1 [Compound A],HDL,cholesterol fed rat,significantly increased HDL
same,"expression of RCT genes (apolipoprotein E, SRB1 and LCAT)",[1],increased expression of RCT genes
same,plasma glucose,Ob/ob mice,significantly lower levels of plasma glucose
same,glucose stimulated insulin secretion,Pancreatic beta cells,increased secretion of insulin
same,ability to induce RCT gene expression after GATA knock-down,GATA1,blunting of Compound A's ability to induce RCT gene expression
CS(=O)(=O)c1ccc(Nc2nc(-c3ccccc3)cc(N3CCC(O)CC3)n2)cc1 [Compound C],lipid content in aortas,ApoE −/− mice,significantly lowered lipid content
CCN1CCCC1CNc1nc(Nc2ccc(OC)c(F)c2)nc(N2CCN(CC(=O)N3CCCC3)CC2)n1 (stereo not shown) [D],RCT gene expression,RCT genes,did not induce RCT gene induction
same,GATA activity (luciferase activity),GATA,not shown to induce GATA activity
COc1ccc(Nc2nc(NC3CCCCCC3)nc(N(C)C3CCN(C)CC3)n2)cc1F [E],RCT gene expression,RCT genes,did not induce RCT gene induction
same,GATA activity (luciferase activity),GATA,not shown to induce GATA activity
